Entries after “also recorded” stand apart in the source; their conditions may differ.
What was measured:
[1] = system: MCF-7; assay: MTT test (viability) on breast cancer cell line MCF-7; format: cell-based; settings: Homo sapiens, MCF7, MCF-7, 10^−4 M, read-out: Max. inhibition (%) (maximum decrease in viability)
[2] = MTT test (viability) on HaCaT keratinocyte cell line; format: cell-based; settings: human, 10^−4 M, read-out: Max. inhibition (%) (maximum decrease in viability)
[3] = MTT test (viability) on primary keratinocytes (NHK); format: cell-based; settings: human, primary keratinocytes (NHK); MTT test, NHK, 10^−4 M; read-out: Max. inhibition (%) (maximum decrease in viability)
[4] = system: primary keratinocytes; assay: as above; format: cell-based; settings: for inhibition at 100 µM / IC50: Keratinocyte; for inhibition at 100 µM: read-out: max. inhibition; for IC50: 48 h stimulation, read-out: −lg IC50 [M] ± SEM (converted)
[5] = MTT test (viability) on dermal fibroblasts; format: cell-based; settings: Fibrob., 10^−4 M, read-out: Max. inhibition (%) (maximum decrease in viability)
[6] = system: SCC-25 cells; assay: MTT test (viability) on SCC-25 tumor cells; format: cell-based; settings: for inhibition at 100 µM / IC50 / cytotoxicity at 100 µM: Homo sapiens; for inhibition at 100 µM: read-out: max. inhibition; for IC50: read-out: −lg IC50 [M] ± SEM (converted); for cytotoxicity at 100 µM: read-out: Max. inhibition (%) (maximum decrease in viability)
[7] = MTT test (viability) on colon carcinoma line HT-29; format: cell-based; settings: Hat 29, 10^−4 M
[8] = logP values; format: physicochemical
[9] = MTT test 48 h, primary keratinocytes, inhibitionmax = 100 − E, E = activity at 10^−4 M in %
[10] = MTT test, primary keratinocytes
[11] = MTT test 48 h, SCC-25 cells, inhibitionmax = 100 − E, E = activity at 10^−4 M in %
[12] = MTT test, 48 h stimulation, SCC-25 cells

Structure (SMILES) | IC50 [6, 12] | logP [8] | cytotoxicity [2] | cytotoxicity [3] | inhibition at 100 µM [4, 9] | IC50 [4, 10] | inhibition at 100 µM [6, 11] | cytotoxicity at 100 µM ([6]; MTT test, SCC-25, 10^−4 M) | further results
C[C@@]1(CO)[C@H](O)CC[C@@]2(C)[C@H]1CC[C@H]1C[C@@H]3C[C@@]12CC[C@]3(O)CO [Aphidicolin] | 5.13e-07 M |  | 86% | 44% | 46% | 5.62e-09 M | 66% | 62% | cytotoxicity at 100 µM [1]: 61%; cytotoxicity [5]: 54%; Max. inhibition (%) (maximum decrease in viability) [7]: 70%
CCOC(=O)O[C@]1(C(=O)COC(=O)CC)CC[C@H]2[C@@H]3CCC4=CC(=O)C=C[C@]4(C)[C@H]3[C@@H](O)C[C@@]21C [Prednicarbate] |  | 3.82 |  |  |  |  |  |  | 
O=C(O)P(=O)(O)O [Foscamet] |  |  |  |  |  |  |  |  | max. inhibition [4, 9]: n.d. (−13%); Max. inhibition (%) (maximum decrease in viability) ([4]; MTT test, NHK, 10^−4 M): 0%; max. inhibition [6, 11]: 9%; pIC50 [6, 12]: 5.87 ± 0.24; Max. inhibition (%) (maximum decrease in viability) ([6]; MTT test, SCC-25, 10^−4 M): 9%
Cc1cn([C@H]2CC(=NO)[C@@H](CO)O2)c(=O)[nH]c1=O [HM-1 oxime, 3′-deoxy-3′-hydroxyliminothymidine] | 3.72e-08 M |  | 20% | 3% | 7% | 3.09e-08 M | 36% | 30% | 
Cc1cn([C@H]2CC(=O)[C@@H](CO)O2)c(=O)[nH]c1=O [HM-1, 3′-Deoxy-3′-oxothymidine] | 4.47e-05 M | -1.13 | 16% | 23% | 24% |  | 47% | 47% | cytotoxic / antiproliferative effect on tumor cells (SCC-25), in words ([6]; SCC-25 cells, FIG. 1, FIG. 2, Table 1): strong cytotoxic effect; also recorded: stronger than that of the two comparative substances 5-fluorouracil and aphidicolin; selectivity: effect on SCC-25 tumor cells compared with keratinocytes, in words ([6]; SCC-25 vs primary keratinocytes (and HaCaT)): stronger than that in primary keratinocytes

Now from value to compound, other results behind:

IC50 [6, 12] | logP [8] | Structure (SMILES) | cytotoxicity [2] | cytotoxicity [3] | inhibition at 100 µM [4, 9] | IC50 [4, 10] | inhibition at 100 µM [6, 11] | cytotoxicity at 100 µM ([6]; MTT test, SCC-25, 10^−4 M) | further results
 | 1.69 | C[C@]12C=CC(=O)C=C1CC[C@@H]1[C@@H]2[C@@H](O)C[C@@]2(C)[C@H]1CC[C@]2(O)C(=O)CO [Prednisolone] |  |  |  |  |  |  | 
1.05e-06 M |  | O=c1[nH]cc(F)c(=O)[nH]1 [Substance 5-FU, 5-fluorouracil] | 80% | 41% | 44% | 1.05e-05 M | 42% | 42% | cytotoxicity at 100 µM [1]: 71%; cytotoxicity [5]: 88%; Max. inhibition (%) (maximum decrease in viability) [7]: 66%

— patent publication US20110182973A1, “POLYMERASE INHIBITORS AND THE USE THEREOF FOR THE TREATMENT OF TUMORS” (FREIE UNIVERSITAET BERLIN, priority 2007, published 2011)
